Toxic doses and inconclusive results are not listed. No stated cut-off is given here; in the data, active means T/C of 150% or more; inactive means T/C below 125%.
Tested on: L1210 leukemia ip in BDF1 mice, survival T/C
Assay: NCI In Vivo Anticancer Drug Screen. Data for tumor model L1210 Leukemia (intraperitoneal) in B6D2F1 (BDF1) mice
Conditions: endpoint: mean survival time, higher = longer survival
Method in brief: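 Ratio derived from survival: compound-dosed mice over vehicle-dosed mice, all bearing a transplantable tumor.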

[1] = dose: 100.0 mg/kg/injection, schedule: Q01DX009 (ip), vehicle: Klucel (hydroxypropylcellulose) (HPC)
[2] = dose: 100.0 mg/kg/injection, schedule: Q04DX003 (ip), vehicle: Klucel (hydroxypropylcellulose) (HPC)
[3] = dose: 200.0 mg/kg/injection, schedule: Q01DX009 (ip), vehicle: Klucel (hydroxypropylcellulose) (HPC)
[4] = dose: 200.0 mg/kg/injection, schedule: Q04DX003 (ip), vehicle: Klucel (hydroxypropylcellulose) (HPC)
[5] = dose: 400.0 mg/kg/injection, schedule: Q01DX009 (ip), vehicle: Klucel (hydroxypropylcellulose) (HPC)
[6] = dose: 400.0 mg/kg/injection, schedule: Q04DX003 (ip), vehicle: Klucel (hydroxypropylcellulose) (HPC)
[7] = dose: 50.0 mg/kg/injection, schedule: Q01DX009 (ip), vehicle: saline with Tween-80
[8] = dose: 100.0 mg/kg/injection, schedule: Q01DX009 (ip), vehicle: saline with Tween-80
[9] = dose: 200.0 mg/kg/injection, schedule: Q01DX009 (ip), vehicle: saline with Tween-80
[10] = dose: 100.0 mg/kg/injection, schedule: Q04DX003 (ip), vehicle: saline
[11] = dose: 200.0 mg/kg/injection, schedule: Q04DX003 (ip), vehicle: saline
[12] = dose: 400.0 mg/kg/injection, schedule: Q04DX003 (ip), vehicle: saline
[13] = dose: 100.0 mg/kg/injection, schedule: Q01DX001 (ip), vehicle: saline with Tween-80
[14] = dose: 200.0 mg/kg/injection, schedule: Q01DX001 (ip), vehicle: saline with Tween-80
[15] = dose: 100.0 mg/kg/injection, schedule: Q04DX003 (ip), vehicle: saline with Tween-80
[16] = dose: 200.0 mg/kg/injection, schedule: Q04DX003 (ip), vehicle: saline with Tween-80
[17] = dose: 400.0 mg/kg/injection, schedule: Q01DX009 (ip), vehicle: saline with Tween-80
[18] = dose: 400.0 mg/kg/injection, schedule: Q04DX003 (ip), vehicle: saline with Tween-80
[19] = dose: 100.0 mg/kg/injection, schedule: Q01DX001 (ip), vehicle: saline
[20] = dose: 200.0 mg/kg/injection, schedule: Q01DX001 (ip), vehicle: saline

Measured: T/C

CN(C)c1ccc(/C=C2/CCCCC2=O)cc1
inactive: [1] 98 % of control | [2] 93 % of control | [3] 109 % of control | [4] 103 % of control | [5] 96 % of control | [6] 103 % of control

COc1cccc2c1C13CC(C)CC(C2)C1CCC(=O)N3 (configuration not stated)
inactive: [2] 100 % of control | [4] 93 % of control | [6] 102 % of control

Cc1ccc(S(=O)(=O)Nc2ccccc2)c(CC(O)(c2ccccc2)c2ccccc2)c1
inactive: [7] 93 % of control | [8] 86 % of control | [9] 93 % of control

O=C(CSSCC(=O)Nc1ccccc1O)Nc1ccccc1O
inactive: dose: 100.0 mg/kg/injection, schedule: Q01DX001 (ip), vehicle: other 88 % of control | dose: 200.0 mg/kg/injection, schedule: Q01DX001 (ip), vehicle: other 93 % of control | dose: 400.0 mg/kg/injection, schedule: Q01DX001 (ip), vehicle: other 89 % of control

OC1CCCC2CCC[N-]C12.OC1CCCC2CCC[N-]C12.[Mn+2] (configuration not stated)
inactive: dose: 50.0 mg/kg/injection, schedule: Q04DX003 (ip), vehicle: Klucel (hydroxypropylcellulose) (HPC) 106 % of control | [2] 113 % of control | [4] 106 % of control

Cc1cc(C)c(C(=O)/C=C/c2ccccc2)c(C)c1
inactive: [1] 91 % of control | [2] 104 % of control | [3] 94 % of control | [4] 101 % of control | [5] 94 % of control | [6] 95 % of control

COC(=O)c1c(OC)cc(OC)cc1OC
inactive: dose: 100.0 mg/kg/injection, schedule: Q01DX009 (ip), vehicle: other 96 % of control | [10] 100 % of control | dose: 200.0 mg/kg/injection, schedule: Q01DX009 (ip), vehicle: other 96 % of control | [11] 97 % of control | dose: 400.0 mg/kg/injection, schedule: Q01DX009 (ip), vehicle: other 94 % of control | [12] 95 % of control

C/C(=N/NC(=O)CNC(=O)c1ccccc1)c1ccc2ccccc2c1
inactive: [8] 87 % of control | [9] 100 % of control

Nc1nc2ccc(CNc3ccc(C(=O)NC(CC(=O)O)C(=O)O)cc3)cc2c(=O)[nH]1 (configuration not stated)
inactive: dose: 18.7 mg/kg/injection, schedule: Q01DX001 (ip), vehicle: saline with Tween-80 102 % of control | dose: 37.5 mg/kg/injection, schedule: Q01DX001 (ip), vehicle: saline with Tween-80 113 % of control | dose: 75.0 mg/kg/injection, schedule: Q01DX001 (ip), vehicle: saline with Tween-80 115 % of control | [13] 109 % of control | [14] 109 % of control

CCCCCCCCCCCCCCCCOP(=O)(O)OCCCCCCCCCCCCCCCC
inactive: [7] 98 % of control | [8] 91 % of control | [15] 105 % of control | [9] 89 % of control | [16] 90 % of control | [17] 93 % of control | [18] 95 % of control

CCC(C)OC(=O)C(C)OC(=O)OCCOCCOC(=O)OC(C)C(=O)OC(C)CC (configuration not stated)
inactive: [19] 96 % of control | [20] 100 % of control | dose: 400.0 mg/kg/injection, schedule: Q01DX001 (ip), vehicle: saline 96 % of control

O=c1[nH]c(=O)n(Cc2ccccc2)cc1Cc1cccc(OCc2ccccc2)c1
inactive: [15] 97 % of control | [16] 96 % of control | [18] 97 % of control

CC(C)NNC(=O)c1ccc(N)cc1
inactive: [10] 105 % of control | [11] 113 % of control | [12] 108 % of control

CCN(CC)CCN1C(=O)c2ccc3c4c(ccc(c24)C1=O)C(=O)N(CCN(CC)CC)C3=O
inactive: dose: 6.25 mg/kg/injection, schedule: Q01DX001 (ip), vehicle: saline 105 % of control | dose: 12.5 mg/kg/injection, schedule: Q01DX001 (ip), vehicle: saline 98 % of control

CCCCCc1cc(O)c(C2CC(C)CCC2C(C)C)c(OC(=O)c2ccc([N+](=O)[O-])cc2[N+](=O)[O-])c1 (configuration not stated)
inactive: [2] 104 % of control | [4] 88 % of control | [6] 88 % of control

c1ccc(C(c2cccc3ccccc23)N2CCCCC2)cc1 (configuration not stated)
inactive: [8] 94 % of control | [15] 108 % of control | [9] 97 % of control | [16] 96 % of control | [17] 95 % of control | [18] 102 % of control

CCC/C=C/C(O)C1CCCCC1 (configuration not stated)
inactive: [7] 92 % of control | [8] 95 % of control | [9] 95 % of control

CCOC(=O)C(=N\Nc1ccc(C)c(C)c1)/C(C)=N\NC(N)=S
inactive: dose: 75.0 mg/kg/injection, schedule: Q01DX001 (ip), vehicle: saline 87 % of control | dose: 150.0 mg/kg/injection, schedule: Q01DX001 (ip), vehicle: saline 89 % of control

CC(C)CC(=O)NC(C)C(=O)NC(Cc1ccccc1)C(=O)CCl (configuration not stated)
inactive: dose: 12.0 mg/kg/injection, schedule: Q04DX002 (ip), vehicle: Klucel (hydroxypropylcellulose) (HPC) 109 % of control | dose: 25.0 mg/kg/injection, schedule: Q04DX002 (ip), vehicle: Klucel (hydroxypropylcellulose) (HPC) 98 % of control | dose: 50.0 mg/kg/injection, schedule: Q04DX002 (ip), vehicle: Klucel (hydroxypropylcellulose) (HPC) 106 % of control

COc1cc(OC)c2c(=O)c3ccccc3[nH]c2c1
inactive: [15] 87 % of control | [18] 88 % of control

CCCCCCCCCCCCCCCOc1c(Cl)c(Cl)c(Cl)c(Cl)c1Cl
inactive: [2] 95 % of control | [4] 90 % of control | [6] 95 % of control

CN(C)CCC=C1c2ccccc2-c2ccccc21
inactive: dose: 15.0 mg/kg/injection, schedule: Q01DX015 (ip), vehicle: carboxymethylcellulose (CMC) 88 % of control | dose: 25.0 mg/kg/injection, schedule: Q01DX009 (ip), vehicle: saline with Tween-80 105 % of control | dose: 30.0 mg/kg/injection, schedule: Q01DX015 (ip), vehicle: carboxymethylcellulose (CMC) 92 % of control | dose: 50.0 mg/kg/injection, schedule: Q01DX001 (ip), vehicle: carboxymethylcellulose (CMC) 93 % of control | [7] 96 % of control | dose: 60.0 mg/kg/injection, schedule: Q01DX015 (ip), vehicle: carboxymethylcellulose (CMC) 92 % of control | dose: 100.0 mg/kg/injection, schedule: Q01DX001 (ip), vehicle: carboxymethylcellulose (CMC) 104 % of control | [8] 111 % of control | [10] 115 % of control | dose: 120.0 mg/kg/injection, schedule: Q01DX015 (ip), vehicle: carboxymethylcellulose (CMC) 92 % of control | dose: 200.0 mg/kg/injection, schedule: Q01DX001 (ip), vehicle: carboxymethylcellulose (CMC) 98 % of control | dose: 400.0 mg/kg/injection, schedule: Q01DX001 (ip), vehicle: carboxymethylcellulose (CMC) 101 % of control

CC(=O)Nc1ccc(/C=N\NC(=O)C2CC2)cc1
inactive: [2] 100 % of control | [4] 87 % of control | [6] 87 % of control

FC(F)(F)c1ccc2c(c1)N(CCCNCCN1CCOCC1)c1ccccc1S2
inactive: dose: 3.12 mg/kg/injection, schedule: Q01DX009 (ip), vehicle: saline 117 % of control | dose: 6.25 mg/kg/injection, schedule: Q01DX009 (ip), vehicle: saline 101 % of control | dose: 12.5 mg/kg/injection, schedule: Q01DX009 (ip), vehicle: saline 101 % of control | dose: 25.0 mg/kg/injection, schedule: Q01DX009 (ip), vehicle: saline 90 % of control | dose: 25.0 mg/kg/injection, schedule: Q04DX003 (ip), vehicle: saline 102 % of control | dose: 50.0 mg/kg/injection, schedule: Q04DX003 (ip), vehicle: saline 123 % of control

O=Cc1[nH]c(=S)[nH]c(=O)c1Cc1cc([N+](=O)[O-])ccc1O
inactive: [13] 93 % of control | [14] 104 % of control | dose: 400.0 mg/kg/injection, schedule: Q01DX001 (ip), vehicle: saline with Tween-80 95 % of control

BrC1CCCCC1Br (configuration not stated)
inactive: [19] 98 % of control | [20] 101 % of control

OCC(O)C(O)C(O)C1COC(CBr)O1 (configuration not stated)
inactive: dose: 100.0 mg/kg/injection, schedule: Q04DX002 (ip), vehicle: Klucel (hydroxypropylcellulose) (HPC) 90 % of control | dose: 200.0 mg/kg/injection, schedule: Q04DX002 (ip), vehicle: Klucel (hydroxypropylcellulose) (HPC) 93 % of control | dose: 400.0 mg/kg/injection, schedule: Q04DX002 (ip), vehicle: Klucel (hydroxypropylcellulose) (HPC) 108 % of control

Cc1ccc(S(=O)(=O)N/N=C/c2ccccc2C)cc1
inactive: [8] 105 % of control | [15] 98 % of control | [9] 100 % of control | [16] 95 % of control | [17] 97 % of control | [18] 95 % of control
